Laboratory results published in patent publication US20120316105A1, “Polymyxin Derivates Useful As Antibacterial Agents” (priority 2011, published 2012).
Where two headings read alike, the source gives them in different places. Bridge positions count the residues as written; N and C are the ends. Square brackets hold non-standard residues; d marks the D form. Peptide text beside a SMILES is read from it. * marks the point of attachment. X9 = N#Cc1ccc(-c2cc(C(=O)*)ccc2F)nc1; X22 = COc1cccc(-c2cc(C(=O)*)ccn2)c1; X29 = COc1cc(C(=O)*)cc(-c2ccccc2)c1; X30 = O=C(c1ccc(Cl)c(-c2ccccc2)c1)*; X38 = O=S(=O)(c1cccc(-c2ccccc2)c1)*; X3 = O=C(c1ccnc(-c2cccc(Cl)c2)c1)*; X39 = COc1ccc(C(=O)*)cc1-c1ccccc1; X6 = O=C(c1cccc(-c2ccc(F)cc2)c1)*; X7 = O=C(c1ccnc(-c2ccccc2F)c1)*; X8 = O=C(c1cc(-c2ccccc2)ccc1F)*; Dab = NCC[C@H](N)C(=O)O; Dap = NC[C@H](N)C(=O)O

Legend:
[1] = system: AB-1649, polymyxin-resistant clinical isolate of Acinetobacter baumannii; format: cell-based; settings: AB-1649, polymyxin-resistant clinical isolate of
In short: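 Broth dilution MIC per CLSI against the polymyxin-resistant A. baumannii isolate, 2-fold dilutions, overnight incubation, visual read of lowest concentration inhibiting growth. Run in duplicate, lower value reported when within 2-fold; MBC per CLSI M26-A guideline.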

[2] = system: Pseudomonas aeruginosa strain PA01; format: cell-based; settings: strain
In short: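 CLSI broth dilution against P. aeruginosa PA01 with two-fold concentration steps and overnight incubation; MIC is lowest concentration visibly inhibiting growth versus drug-free control, in mg/L. Compounds tested as trifluoroacetate salts, in duplicate, lower value reported if within 2-fold; control organisms and reference compounds included.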

[3] = system: PA-1646, polymyxin-resistant clinical isolate of Pseudomonas aeruginosa; format: cell-based; settings: PA-1646, polymyxin-resistant clinical isolate of
In short: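 Broth dilution MIC per CLSI with 2-fold concentration steps, read visually after overnight incubation as lowest concentration inhibiting growth; duplicates within 2-fold, lower value reported, with QC strains and reference compounds. Compounds tested as trifluoroacetate salts, polymyxin B as sulfate.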

[4] = system: AB-3167, clinical isolate of Acinetobacter baumannii; format: cell-based
In short: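 Broth dilution MIC per CLSI (M7-A8, M100-S20, M26-A for bactericidal), 2-fold dilution series, overnight incubation, visual read of lowest concentration inhibiting growth versus drug-free control. Duplicates run; lower value reported if within 2-fold, otherwise repeated. Compounds tested as trifluoroacetate salts; QC strains and reference compounds required in range.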

[5] = system: AB-1649, polymyxin-resistant clinical isolate of Acinetobacter baumannii; format: cell-based; settings: AB-1649, polymyxin-resistant clinical isolate of; remark: listed apart in the source
In short: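 MIC and MBC were measured by CLSI broth dilution methods (M7-A8, M100-S20, M26-A) against a polymyxin-resistant clinical isolate and reported in mg/L. Compounds were tested as trifluoroacetate salts, with one exception tested as the sulfate.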

[6] = system: EC-1, mouse virulent strain of Escherichia coli; format: cell-based; settings: E. coli EC-1; overnight incubation, lower of duplicate values; trifluoroacetate salt (Example 1 and PMB sulfate)
In short: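 Compounds were tested mostly as trifluoroacetate salts. Duplicate CLSI broth-dilution MICs were read visually after overnight incubation over 2-fold dilutions, with the lower of duplicates within 2-fold taken. QC organisms and reference drugs were included in each run.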

[7] = Cytotoxicity assay (LDH release), hRPTEC; format: cell-based, human; settings: human
In short: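 hRPTEC grown 72 h in REGM, then exposed to compounds at 100, 67, 44, 30, 20 and 13 micromolar for 24 h at 37° C, 5% CO2. LDH released into supernatant measured; TC50 (micromolar) derived. Compounds tested as trifluoroacetate salts unless otherwise noted.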

[8] = system: PA-1646, polymyxin-resistant clinical isolate of Pseudomonas aeruginosa; format: cell-based; settings: PA-1646, polymyxin-resistant clinical isolate of; remark: listed apart in the source
In short: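 Broth dilution MIC and bactericidal (MBC) testing per CLSI methods (M7-A8, M100-S20, M26-A) against polymyxin-resistant clinical P. aeruginosa isolate PA-1646. Compounds tested as trifluoroacetate salts, one as sulfate salt; values in mg/L.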

| SMILES | AB-1649 MIC [1] [µg/mL] | PA01 MIC [2] [µg/mL] | PA-1646 MIC [3] [µg/mL] | AB-3167 MIC ([4]; AB-3167, clinical isolate of) [µg/mL] | AB-1649 MBC [5] [µg/mL] | EC-1 MIC [6] [µg/mL] | CC50 at 24 h [7] [µM] | PA-1646 MBC [8] [µg/mL] | AB-3167 MIC ([4]; A. baumannii AB-3167, overnight incubation, lower of duplicate values, trifluoroacetate salt (Example 1 and PMB sulfate)) [µg/mL] |
| --- | --- | --- | --- | --- | --- | --- | --- | --- | --- |
| CC(C)C[C@@H]1NC(=O)[C@@H](Cc2ccccc2)NC(=O)[C@H](CCN)NC(=O)[C@@H](NC(=O)[C@H](CN)NC(=O)[C@@H](NC(=O)[C@H](CCN)NS(=O)(=O)c2cccc(-c3ccccc3)c2)[C@@H](C)O)CCNC(=O)[C@H]([C@@H](C)O)NC(=O)[C@H](CCN)NC(=O)[C@H](CCN)NC1=O [Example 41] (X38-[Dab]T[Dap][Dab][Dab][dF]L[Dab][Dab]T; lactam 4-C) | 64 | 0.25 | 2 | 1 | >64 | 0.25 | 42 | 4 | – |
| COc1ccc(C(=O)N[C@@H](CCN)C(=O)N[C@H](C(=O)N[C@@H](CN)C(=O)N[C@H]2CCNC(=O)[C@H]([C@@H](C)O)NC(=O)[C@H](CCN)NC(=O)[C@H](CCN)NC(=O)[C@H](CC(C)C)NC(=O)[C@@H](Cc3ccccc3)NC(=O)[C@H](CCN)NC2=O)[C@@H](C)O)cc1-c1ccccc1 [Example 16] (X39-[Dab]T[Dap][Dab][Dab][dF]L[Dab][Dab]T; lactam 4-C) | 2 | 0.5 | 1 | 0.5 | 2 | 0.25 | 27 | 2 | – |
| CC(C)C[C@@H]1NC(=O)[C@@H](Cc2ccccc2)NC(=O)[C@H](CCN)NC(=O)[C@@H](NC(=O)[C@H](CN)NC(=O)[C@@H](NC(=O)[C@H](CCN)NC(=O)c2cccc(-c3ccc(F)cc3)c2)[C@@H](C)O)CCNC(=O)[C@H]([C@@H](C)O)NC(=O)[C@H](CCN)NC(=O)[C@H](CCN)NC1=O [Example 20] (X6-[Dab]T[Dap][Dab][Dab][dF]L[Dab][Dab]T; lactam 4-C) | 2 | 0.5 | 1 | 0.25 | 2 | 0.25 | 18 | 1 | – |
| CC(C)C[C@@H]1NC(=O)[C@@H](Cc2ccccc2)NC(=O)[C@H](CCN)NC(=O)[C@@H](NC(=O)[C@H](CN)NC(=O)[C@@H](NC(=O)[C@H](CCN)NC(=O)c2ccc(F)c(-c3ccc(C#N)cn3)c2)[C@@H](C)O)CCNC(=O)[C@H]([C@@H](C)O)NC(=O)[C@H](CCN)NC(=O)[C@H](CCN)NC1=O [Example 24] (X9-[Dab]T[Dap][Dab][Dab][dF]L[Dab][Dab]T; lactam 4-C) | 4 | 1 | 4 | 0.5 | 8 | 0.25 | > 100 | 16 | – |
| COc1cccc(-c2cc(C(=O)N[C@@H](CCN)C(=O)N[C@H](C(=O)N[C@@H](CN)C(=O)N[C@H]3CCNC(=O)[C@H]([C@@H](C)O)NC(=O)[C@H](CCN)NC(=O)[C@H](CCN)NC(=O)[C@H](CC(C)C)NC(=O)[C@@H](Cc4ccccc4)NC(=O)[C@H](CCN)NC3=O)[C@@H](C)O)ccn2)c1 [Example 29] (X22-[Dab]T[Dap][Dab][Dab][dF]L[Dab][Dab]T; lactam 4-C) | 4 | 1 | 4 | 0.5 | 4 | 0.5 | 70 | 32 | – |
| CC(C)C[C@@H]1NC(=O)[C@@H](Cc2ccccc2)NC(=O)[C@H](CCN)NC(=O)[C@@H](NC(=O)[C@H](CN)NC(=O)[C@@H](NC(=O)[C@H](CCN)NC(=O)c2cc(-c3ccccc3)ccc2F)[C@@H](C)O)CCNC(=O)[C@H]([C@@H](C)O)NC(=O)[C@H](CCN)NC(=O)[C@H](CCN)NC1=O [Example 34] (X8-[Dab]T[Dap][Dab][Dab][dF]L[Dab][Dab]T; lactam 4-C) | 16 | 0.5 | 2 | 0.25 | 16 | 0.125 | 28 | 8 | – |
| CC(C)C[C@@H]1NC(=O)[C@@H](Cc2ccccc2)NC(=O)[C@H](CCN)NC(=O)[C@@H](NC(=O)[C@H](CN)NC(=O)[C@@H](NC(=O)[C@H](CCN)NC(=O)c2ccnc(-c3cccc(Cl)c3)c2)[C@@H](C)O)CCNC(=O)[C@H]([C@@H](C)O)NC(=O)[C@H](CCN)NC(=O)[C@H](CCN)NC1=O [Example 3] (X3-[Dab]T[Dap][Dab][Dab][dF]L[Dab][Dab]T; lactam 4-C) | 0.5 | 0.5 | 1 | 0.25 | 0.5 | 0.125 | 34 | 1 | – |
| CC(C)C[C@@H]1NC(=O)[C@@H](Cc2ccccc2)NC(=O)[C@H](CCN)NC(=O)[C@@H](NC(=O)[C@H](CN)NC(=O)[C@@H](NC(=O)[C@H](CCN)NC(=O)c2ccnc(-c3ccccc3F)c2)[C@@H](C)O)CCNC(=O)[C@H]([C@@H](C)O)NC(=O)[C@H](CCN)NC(=O)[C@H](CCN)NC1=O [Example 5] (X7-[Dab]T[Dap][Dab][Dab][dF]L[Dab][Dab]T; lactam 4-C) | 1 | 0.5 | 2 | – | 1 | 0.125 | 83 | 4 | 0.125 |
| COc1cc(C(=O)N[C@@H](CCN)C(=O)N[C@H](C(=O)N[C@@H](CN)C(=O)N[C@H]2CCNC(=O)[C@H]([C@@H](C)O)NC(=O)[C@H](CCN)NC(=O)[C@H](CCN)NC(=O)[C@H](CC(C)C)NC(=O)[C@@H](Cc3ccccc3)NC(=O)[C@H](CCN)NC2=O)[C@@H](C)O)cc(-c2ccccc2)c1 [Example 17] (X29-[Dab]T[Dap][Dab][Dab][dF]L[Dab][Dab]T; lactam 4-C) | 4 | 0.5 | 2 | 0.25 | 8 | 0.25 | 26 | 4 | – |
| CC(C)C[C@@H]1NC(=O)[C@@H](Cc2ccccc2)NC(=O)[C@H](CCN)NC(=O)[C@@H](NC(=O)[C@H](CN)NC(=O)[C@@H](NC(=O)[C@H](CCN)NC(=O)c2ccc(Cl)c(-c3ccccc3)c2)[C@@H](C)O)CCNC(=O)[C@H]([C@@H](C)O)NC(=O)[C@H](CCN)NC(=O)[C@H](CCN)NC1=O [Example 10] (X30-[Dab]T[Dap][Dab][Dab][dF]L[Dab][Dab]T; lactam 4-C) | 1 | 1 | 0.5 | 0.5 | 1 | 0.25 | 14 | 1 | – |
